Laboratory results as given in patent EP2177216A1, “Use of dianhydrohexite mononitrate derivatives as healing agents” (LACER, S.A., priority 2008, dated 2010).

Test system: full thickness wound (2 x 2 cm)
Assay: Wound healing (wound contraction and re-epithelialization) after topical hydrogel application to a full thickness skin wound in rats
Assay type: in vivo, Male Wistar rats
Description: Male Wistar rats provided by Janvier, Espana weighing 150 - 200 g were housed in our animal facilities in groups of 3 animals, being each group in a conventional animal facility where the environmental temperature and relative humidity are monitored and controlled. The lighting schedule in the animal facility is 12 hours light and 12 hours dark. The rats were used after an acclimatization period of five days. After a week quarantine period animals were dosed.
The solutions were allowed to attain dissolution equilibrium for a period of 8 h. The appropriate amount of compound of formula (I) was added to the hydrogel solution for homogenization. […] The hydrogels were used immediately after preparation.
Rats were anesthetized with sodium pentobarbital (40 mg/kg, i.p.) before treatments application to keep the animal calm to allow absorption of the products.
The dorsal surface was shaved and a full thickness wound (2 x 2 cm) was made on the back of each rat by removing the skin (epidermis and dermis) and exposing paniculus carnosus.
Groups of 5 rats for treatment were used, and 0.5 g of hydrogel was topically applied in a wound (2 x 2 cm) on the back of each rat.
Treatments were applied from the first day until fourth day after wounding. […] From the fifth day post-wounding, lesions were left uncovered in all groups. The animals were housed in individual cages with free access to food and water. […]
The area of the wounds (cm^2) and % re-ephitelización were estimated by the difference between the total lesion area and the wound area still uncovered.
The efficacy of treatments was evaluated by measuring wound area and percentage of re-epithelialization vs total wound area.

[1] = day 5, 0.5 g of hydrogel topically applied from first until fourth day after wounding, groups of 5 rats
[2] = day 8, 0.5 g of hydrogel topically applied from first until fourth day after wounding, initial wound 2 x 2 cm
[3] = versus control hydrogel, from wound area at day 8

SMILES	% Re-epithelialization (day 5) [1] [%]	Wound area (cm^2) (day 8) [2]	% Wound reduction vs control [3] [%]	% Re-epithelialization (day 5) (rat, in vivo) [%]	% Wound reduction vs control (rat, in vivo) [%]	Wound area (cm^2) (day 8) (rat, in vivo)
CC(=O)S[C@H]1CO[C@H]2[C@@H]1OC[C@H]2O[N+](=O)[O-] [Compound 1, 2-acetylthioisosorbide 5-mononitrate]	100	1.2	66			
CC(=O)S[C@@H]1CO[C@H]2[C@@H]1OC[C@H]2O[N+](=O)[O-] [Compound 2, 2-acetylthioisomanide 5-mononitrate]	100	1.4	60			
O=[N+]([O-])O[C@@H]1CO[C@H]2[C@@H]1OC[C@@H]2SS[C@H]1CO[C@H]2[C@@H]1OC[C@H]2O[N+](=O)[O-] [Compound 3, 5'5'-dinitrato-2,2'ditioisosorbide]	100	1.7	51			
CS[C@H]1CO[C@H]2[C@@H]1OC[C@H]2O[N+](=O)[O-] [Compound 4, 2-Methylthioisosorbide 5-mononitrate]	100	1.1	69			
CS(=O)(=O)[C@H]1CO[C@H]2[C@@H]1OC[C@H]2O[N+](=O)[O-] [Compound 5, 2-Methylsulfonylisosorbide 5-mononitrate]	90	1.7	51			
CCC[S+]([O-])[C@H]1CO[C@H]2[C@@H]1OC[C@H]2O[N+](=O)[O-] (stereo partly drawn) [Compound 6, 2-[(R,S)-propylsulfinyl]isosorbide 5-mononitrate]	90	1.1	69			
O=[N+]([O-])O[C@@H]1CO[C@H]2[C@@H]1OC[C@@H]2O [Compound 7, Isosorbide 5-mononitrate, reference compound]				60	60	1.4
